Measured values: patent US20110039721A1, “METHOD FOR PREDICTION ABOUT CARCINOGENICITY OF SUBSTANCE IN RODENT” (Chemicals Evaluation and Research Institute, priority 2007, published 2011)

Tested on: mRNA expressed from the genes (A) to (D) in rat liver
Assay: Behavior of genes (mRNA expression level, oligo-DNA microarray) in rat liver after 28-day oral administration
Assay type: in vivo
Procedure: A test solution was prepared by dissolving each of the carcinogens and the non-carcinogens shown in Tables 2 to 6 in the corresponding solvent shown in Tables 2 to 6. Each of the thus prepared test solutions and the solvents used for the preparation was administered by oral gavage to rats in each group. As the rats, male rats (F344 SPF rats) at 5 weeks of age obtained from Charles River Laboratories Japan, Inc. were used. The animals were divided into groups, each containing four individuals. The volume of the solvent administered to the vehicle control group was set to the same volume as that of the test solution administered to the carcinogen administration group or the non-carcinogen administration group. The administration of the test solution or the solvent was performed once daily for 28 days. Apiece was excised from the liver of each of the rats after a lapse of 28 days from the initiation of the administration, and the total RNA was extracted and purified.
The expression level of mRNA was compared between each of the chemical substance administration groups and the corresponding vehicle control group, and genes that satisfy the requirements described in (A) to (D) were selected, respectively.
The case where the expression level of mRNA in the carcinogen administration group or the non-carcinogen administration group is 1.5 times or more or 1/1.5 or less of the expression level of the corresponding mRNA expressed in the control group was determined to be significant. In this connection, the determination as to whether or not the change is significant was performed by taking into consideration the direction of increase or decrease in the expression level. In the case where the direction of increase or decrease is different as compared with the case where another carcinogen was administered, the change was determined to be not significant.

[1] = (C), Unigene Rn.120914, defined direction +, rat liver, oral once daily 28 days
[2] = gene group (A), Unigene No. Rn.167075, mRNA vs vehicle control group
[3] = gene group (C), Unigene No. Rn.120914, mRNA vs vehicle control group

CC(C)[N+](=O)[O-] [TS013, 2-Nitropropane]
Behavior of gene caused by administration of chemical substance, Gene No. 4846 ((A), Unigene Rn.144554, defined direction +, rat liver, oral once daily 28 days): + | Behavior of gene caused by administration of chemical substance, Gene No. 4218 ((A), Unigene Rn.167075, defined direction +, rat liver, oral once daily 28 days, significant = 1.5 times or more or 1/1.5 or less of control): + | Behavior of gene caused by administration of chemical substance, Gene No. 2026 ((A), Unigene Rn.167075, defined direction −, rat liver, oral once daily 28 days): + | Behavior of gene caused by administration of chemical substance, Gene No. 6182 ((A), Unigene Rn.5834, defined direction +, rat liver, oral once daily 28 days): + | Behavior of gene caused by administration of chemical substance, Gene No. 5600 ((A), Unigene Rn.9836, defined direction +, rat liver, oral once daily 28 days): + | Behavior of gene caused by administration of chemical substance, Gene No. 1494 ((B), Unigene Rn.1430, defined direction −, rat liver, oral once daily 28 days): + | Behavior of gene caused by administration of chemical substance, Gene No. 2045 ((B), Unigene Rn.19329, defined direction +, rat liver, oral once daily 28 days): − | Behavior of gene caused by administration of chemical substance, Gene No. 2203 ((B), Unigene Rn.21240, defined direction +, rat liver, oral once daily 28 days): − | Behavior of gene caused by administration of chemical substance, Gene No. 533 ((C), Unigene Rn.106184, defined direction +, rat liver, oral once daily 28 days): + | Behavior of gene caused by administration of chemical substance, Gene No. 725 ((C), Unigene Rn.108075, defined direction −, rat liver, oral once daily 28 days): + | Behavior of gene caused by administration of chemical substance, Gene No. 1163 ((C), Unigene Rn.11766, defined direction +, rat liver, oral once daily 28 days): − | Behavior of gene caused by administration of chemical substance, Gene No. 4973 ((C), Unigene Rn.118529, defined direction −, rat liver, oral once daily 28 days): + | Behavior of gene caused by administration of chemical substance, Gene No. 4095 ((C), Unigene Rn.119024, defined direction −, rat liver, oral once daily 28 days): − | Behavior of gene caused by administration of chemical substance, Gene No. 1334 [1]: − | Behavior of gene caused by administration of chemical substance, Gene No. 6620 [1]: − | Behavior of gene caused by administration of chemical substance, Gene No. 6303 ((C), Unigene Rn.123063, defined direction −, rat liver, oral once daily 28 days): + | Behavior of gene caused by administration of chemical substance, Gene No. 5878 ((C), Unigene Rn.143213, defined direction −, rat liver, oral once daily 28 days): − | Behavior of gene caused by administration of chemical substance, Gene No. 1131 ((C), Unigene Rn.144946, defined direction −, rat liver, oral once daily 28 days): − | Behavior of gene caused by administration of chemical substance, Gene No. 1562 ((C), Unigene Rn.14744, defined direction −, rat liver, oral once daily 28 days): + | Behavior of gene caused by administration of chemical substance, Gene No. 1741 ((C), Unigene Rn.1647, defined direction −, rat liver, oral once daily 28 days): − | Behavior of gene caused by administration of chemical substance, Gene No. 893 ((C), Unigene Rn.164817, defined direction +, rat liver, oral once daily 28 days): − | Behavior of gene caused by administration of chemical substance, Gene No. 6026 ((C), Unigene Rn.167685, defined direction −, rat liver, oral once daily 28 days): − | Behavior of gene caused by administration of chemical substance, Gene No. 154 ((C), Unigene Rn.185941, defined direction −, rat liver, oral once daily 28 days): + | Behavior of gene caused by administration of chemical substance, Gene No. 1993 ((C), Unigene Rn.18728, defined direction −, rat liver, oral once daily 28 days): + | Behavior of gene caused by administration of chemical substance, Gene No. 813 ((C), Unigene Rn.201760, defined direction +, rat liver, oral once daily 28 days): − | Behavior of gene caused by administration of chemical substance, Gene No. 2494 ((C), Unigene Rn.23969, defined direction +, rat liver, oral once daily 28 days): − | Behavior of gene caused by administration of chemical substance, Gene No. 2546 ((C), Unigene Rn.24561, defined direction −, rat liver, oral once daily 28 days): − | Behavior of gene caused by administration of chemical substance, Gene No. 3776 ((C), Unigene Rn.43232, defined direction −, rat liver, oral once daily 28 days): − | Behavior of gene caused by administration of chemical substance, Gene No. 3929 ((C), Unigene Rn.4620, defined direction +, rat liver, oral once daily 28 days): − | Behavior of gene caused by administration of chemical substance, Gene No. 1119 ((C), Unigene Rn.9757, defined direction +, rat liver, oral once daily 28 days): − | Behavior of gene caused by administration of chemical substance, Gene No. 6742 ((C), Unigene Rn.9779, defined direction +, rat liver, oral once daily 28 days): − | Behavior of gene caused by administration of chemical substance, Gene No. 5634 ((C), Unigene Rn.9862, defined direction −, rat liver, oral once daily 28 days): − | Behavior of gene caused by administration of chemical substance, Gene No. 5726 ((D), Unigene Rn.9939, defined direction −, rat liver, oral once daily 28 days): −

Clc1c(Cl)c(Cl)c(Cl)c(Cl)c1Cl [TS020, Hexachlorobenzene]
Behavior of gene caused by administration of chemical substance, Gene No. 4846 (gene group (A), Unigene No. Rn.144554, mRNA vs vehicle control group): − | Behavior of gene caused by administration of chemical substance, Gene No. 2026 [2]: − | Behavior of gene caused by administration of chemical substance, Gene No. 4218 [2]: − | Behavior of gene caused by administration of chemical substance, Gene No. 6182 (gene group (A), Unigene No. Rn.5834, mRNA vs vehicle control group): + | Behavior of gene caused by administration of chemical substance, Gene No. 5600 (gene group (A), Unigene No. Rn.9836, mRNA vs vehicle control group): − | Behavior of gene caused by administration of chemical substance, Gene No. 1494 (gene group (B), Unigene No. Rn.1430, mRNA vs vehicle control group): + | Behavior of gene caused by administration of chemical substance, Gene No. 2045 (gene group (B), Unigene No. Rn.19329, mRNA vs vehicle control group): + | Behavior of gene caused by administration of chemical substance, Gene No. 2203 (gene group (B), Unigene No. Rn.21240, mRNA vs vehicle control group): + | Behavior of gene caused by administration of chemical substance, Gene No. 533 (gene group (C), Unigene No. Rn.106184, mRNA vs vehicle control group): + | Behavior of gene caused by administration of chemical substance, Gene No. 725 (gene group (C), Unigene No. Rn.108075, mRNA vs vehicle control group): − | Behavior of gene caused by administration of chemical substance, Gene No. 1163 (gene group (C), Unigene No. Rn.11766, mRNA vs vehicle control group): − | Behavior of gene caused by administration of chemical substance, Gene No. 4973 (gene group (C), Unigene No. Rn.118529, mRNA vs vehicle control group): − | Behavior of gene caused by administration of chemical substance, Gene No. 4095 (gene group (C), Unigene No. Rn.119024, mRNA vs vehicle control group): − | Behavior of gene caused by administration of chemical substance, Gene No. 1334 [3]: − | Behavior of gene caused by administration of chemical substance, Gene No. 6620 [3]: − | Behavior of gene caused by administration of chemical substance, Gene No. 6303 (gene group (C), Unigene No. Rn.123063, mRNA vs vehicle control group): − | Behavior of gene caused by administration of chemical substance, Gene No. 5878 (gene group (C), Unigene No. Rn.143213, mRNA vs vehicle control group): − | Behavior of gene caused by administration of chemical substance, Gene No. 1131 (gene group (C), Unigene No. Rn.144946, mRNA vs vehicle control group): − | Behavior of gene caused by administration of chemical substance, Gene No. 1562 (gene group (C), Unigene No. Rn.14744, mRNA vs vehicle control group): − | Behavior of gene caused by administration of chemical substance, Gene No. 1741 (gene group (C), Unigene No. Rn.1647, mRNA vs vehicle control group): − | Behavior of gene caused by administration of chemical substance, Gene No. 893 (gene group (C), Unigene No. Rn.164817, mRNA vs vehicle control group): − | Behavior of gene caused by administration of chemical substance, Gene No. 6026 (gene group (C), Unigene No. Rn.167685, mRNA vs vehicle control group): − | Behavior of gene caused by administration of chemical substance, Gene No. 154 (gene group (C), Unigene No. Rn.185941, mRNA vs vehicle control group): − | Behavior of gene caused by administration of chemical substance, Gene No. 1993 (gene group (C), Unigene No. Rn.18728, mRNA vs vehicle control group): − | Behavior of gene caused by administration of chemical substance, Gene No. 813 (gene group (C), Unigene No. Rn.201760, mRNA vs vehicle control group): − | Behavior of gene caused by administration of chemical substance, Gene No. 2494 (gene group (C), Unigene No. Rn.23969, mRNA vs vehicle control group): − | Behavior of gene caused by administration of chemical substance, Gene No. 2546 (gene group (C), Unigene No. Rn.24561, mRNA vs vehicle control group): − | Behavior of gene caused by administration of chemical substance, Gene No. 3776 (gene group (C), Unigene No. Rn.43232, mRNA vs vehicle control group): − | Behavior of gene caused by administration of chemical substance, Gene No. 3929 (gene group (C), Unigene No. Rn.4620, mRNA vs vehicle control group): − | Behavior of gene caused by administration of chemical substance, Gene No. 1119 (gene group (C), Unigene No. Rn.9757, mRNA vs vehicle control group): − | Behavior of gene caused by administration of chemical substance, Gene No. 6742 (gene group (C), Unigene No. Rn.9779, mRNA vs vehicle control group): − | Behavior of gene caused by administration of chemical substance, Gene No. 5634 (gene group (C), Unigene No. Rn.9862, mRNA vs vehicle control group): − | Behavior of gene caused by administration of chemical substance, Gene No. 5726 (gene group (D), Unigene No. Rn.9939, mRNA vs vehicle control group): −
